Laboratory results from ChEMBL document CHEMBL1123971, “Synthesis, platelet aggregation inhibitory activity, and in vivo antithrombotic activity of new 1,4-dihydropyridines” (J Med Chem, 1988).
Several values for one entry are separate records, joined by “and”; a condition that tells them apart may be missing. Identical values can stand only once.

Experiments:
Assay type in all cases: functional
[1] = species: Mus musculus; experiment: Dose required to protect 50% of tested mice against experimental antithrombosis.
[2] = species: Mus musculus; experiment: Effective dose of the compound required to protect […] tested mice against experimental antithrombosis
[3] = species: Oryctolagus cuniculus; experiment: Effect on 35 mM K+-induced contraction on rabbit aorta at a dose of 10e-9 mol/L
[4] = species: Oryctolagus cuniculus; experiment: Effect on 35 mM K+-induced contraction on rabbit aorta at a dose of 10e-7 mol/L
[5] = species: Oryctolagus cuniculus; experiment: Effect on 35 mM K+-induced contraction on rabbit aorta at a dose of 10e-8 mol/L
[6] = species: Oryctolagus cuniculus; experiment: Effect on 35 mM K+-induced contraction on rabbit aorta at a dose of 3*10e-9 mol/L
[7] = species: Oryctolagus cuniculus; experiment: Effect on 35 mM K+-induced contraction on rabbit aorta at a dose of 3*10e-8 mol/L
[8] = species: Cavia porcellus; experiment: Effect on guinea pig artia (beats/min), at the a dose of 10e-8 M
[9] = species: Cavia porcellus; experiment: Effect on guinea pig artia (beats/min), at the a dose of 10e-7 M
[10] = species: Cavia porcellus; experiment: Effect on guinea pig artia (beats/min), at the a dose of 0 M
[11] = species: Cavia porcellus; experiment: Effect on guinea pig artia (beats/min), at the a dose of 10e-9 M
[12] = species: Cavia porcellus; experiment: Effect on guinea pig artia (beats/min), at the a dose of 10e-6 M

For CCCCC1C(C(=O)OCCN2C(=O)c3ccccc3S2(=O)=O)=C(C)N=C(C)/C1=C(/O)OC (stereo not given), the ED50 [1] was 78.4 µmol/kg and 37.3 mg/kg.

For CO/C(O)=C1\C(C)=NC(C)=C(C(=O)OCN2C(=O)c3ccccc3S2(=O)=O)C1C (stereo not given), the ED50 [1] was > 220 µmol/kg and > 100 mg/kg.

In the case of CO/C(O)=C1\C(C)=NC(C)=C(C(=O)OCCN2C(=O)c3ccccc3S2(=O)=O)C1C (stereo not given), the ED50 [1] is reported as 138 µmol/kg and 59.9 mg/kg.

With CC1=NC(C)=C(C(=O)OCCNC(=O)c2ccccc2O)C(C)/C1=C(\O)OCCN1C(=O)c2ccccc2S1(=O)=O (stereo not given) the ED50 [1] was 51.4 µmol/kg and 30 mg/kg.

With CCO/C(O)=C1\C(C)=NC(C)=C(C(=O)OCN2C(=O)c3ccccc3S2(=O)=O)C1C (stereo not given) the ED50 [1] was 134 µmol/kg and 58.3 mg/kg.

For CC(=O)Oc1ccccc1C(=O)O [ASPIRIN], the ED30 [2] was 166.66 µM/kg and the ED30 ([2]; Mus musculus, read-out: ED30) was 30 mg/kg.

For OCCN(CCO)c1nc(N2CCCCC2)c2nc(N(CCO)CCO)nc(N3CCCCC3)c2n1 [DIPYRIDAMOLE], the ED50 [1] was 143 µmol/kg and 72 mg/kg.

COC(=O)C1=C(C)NC(C)=C(C(=O)OC)C1c1ccccc1[N+](=O)[O-] [NIFEDIPINE] was tested, and the ED50 [1] was 6.93 µmol/kg and 2.4 mg/kg, the Inhibition [3] was 18.28% and the Inhibition [4] was 100%. It also gave an Inhibition [5] of 73.66%, an Inhibition [6] of 41.73% and an Inhibition [7] of 88.35%.

Work on CCOC(=O)C1=C(C)NC(C)=C(C(=O)OC)C1c1cccc([N+](=O)[O-])c1 (stereo not given) [NITRENDIPINE] yielded a Beats/min [8] of 185, a Control [8] of 97.5% and a Beats/min [9] of 179. It also gave a Control [9] of 94%, a Beats/min [10] of 190 and a Control [10] of 100%. It also gave a Beats/min [11] of 190, a Control [11] of 100% and a Beats/min [12] of 153. For the same compound, the Control [12] was 81%.

With Clc1ccccc1CN1CCc2sccc2C1 [TICLOPIDINE] the ED50 [1] was 152 µmol/kg and 40 mg/kg.
